Measurements taken from patent US8846316B2, “Biomarker for human liver cancer” (Industrial Technology Research Institute, priority 2012, dated 2014).

System: miR-129-2 expression
Assay: miR-129-2 expression by qRT-PCR after 5-aza-cytidine treatment of HCC cells
Assay type: cell-based, human
Conditions: 5 μM 5-azaC for 3 days
Experimental: Hepatoma cell lines, HepG2, HuH7, J7, Hep3B, Mahlavu and SK-Hep-1 were maintained in Dulbecco's modified Eagle's medium at 37° C. in a humidified, 5% CO2 incubator. Twenty-four hours prior to treatment, HuH7 cells (1×10^5 cells/well) and other hepatoma cells (3×10^5 cells/well) were seeded into 6-well plates. Cells were treated with 5 μM 5-azaC (Sigma) for 3 days. Culture medium was replaced every 24 hours with fresh media containing 5-azaC.
Total RNA of hepatoma cells and HCC clinical samples was extracted using TRIzol reagent (Invitrogen). cDNA synthesis was performed with Superscript III reverse transcriptase according to the manufacturer's instructions (Invitrogen). Real-time quantitative polymerase chain reaction was performed on the ABI Prism 7000 sequence detection System using the SYBR Green PCR master mix (Applied Biosystems). For analysis of mature miRNA expression, TaqMan miRNA assay system (Applied Biosystems) was used as the manufacturer's manual. The relative expression level was analyzed by the ΔΔCt method, and U6 and RNU44 were used as an internal control.
In order to evaluate whether miR-129-2 expression was regulated by DNA methylation, the expression level of miR-129-2 between normal liver cells and HCC cells was examined by quantitative reverse transcription PCR.

## Nc1ncn([C@@H]2O[C@H](CO)[C@@H](O)[C@H]2O)c(=O)n1 [5-aza-cytidine]
HuH7 cell
  miR-129-2 expression level elevated compared with untreated cell: 2.5 fold
J7 cell
  miR-129-2 expression level elevated compared with untreated cell: 16 fold
